The record followed here is patent US20200390100A1, “SUBSTITUTED N-HETEROCYCLYL- AND N-HETEROARYL-TETRAHYDROPYRIMIDINONES AND THE SALTS THEREOF, AND THE USE OF SAME AS HERBICIDAL ACTIVE SUBSTANCES” (Bayer Aktiengesellschaft, priority 2017, published 2020).

The test system of assay [1] is Abutilon theophrasti. Put plainly: Post-emergence herbicidal action, greenhouse, 320 g/ha. The conditions noted are these: application rate 320 g/ha, rated visually after about 3 weeks vs untreated controls. Format: in vivo. The procedure, abridged: (§1)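 Plants treated post-emergence at the one-leaf stage, 2 to 3 weeks after sowing in sandy loam, with WP or EC formulations plus 0.5% additive at 320 g/ha. Visual rating about 3 weeks later versus untreated controls (100% = dead, 0% = like control).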

The test system of assay [2] is Alopecurus myosuroides. Described as above. Format: in vivo. The note with it: application rate 320 g/ha, rated visually after about 3 weeks vs untreated controls. Put shortly: as §1
The test system of assay [3] is Amaranthus retroflexus. Described as above. Format: in vivo. The note with it: application rate 320 g/ha, rated visually after about 3 weeks vs untreated controls. The procedure, abridged: as §1
Assay [4] concerns Echinochloa crus-galli. The assay is described as above. Format: in vivo. The note with it: application rate 320 g/ha, rated visually after about 3 weeks vs untreated controls. Put shortly:
as §1

In assay [5] the test system is Pharbitis purpurea. Described as above. Format: in vivo. The note with it: application rate 320 g/ha, rated visually after about 3 weeks vs untreated controls. The procedure, abridged: as §1
The test system of assay [6] is Polygonum convolvulus. The description is as above. Format: in vivo. The conditions noted are these: application rate 320 g/ha, rated visually after about 3 weeks vs untreated controls. The procedure, abridged: as §1
Assay [7] deals with Setaria viridis. Described as above. The note with it: application rate 320 g/ha, rated visually after about 3 weeks vs untreated controls. Format: in vivo. Put shortly: as §1
The test system of assay [8] is Stellaria media. Described as above. Format: in vivo. The note with it: application rate 320 g/ha, rated visually after about 3 weeks vs untreated controls. Put shortly:
as §1

Assay [9] relates to Viola tricolor. The description is as above. Format: in vivo. The note with it: application rate 320 g/ha, rated visually after about 3 weeks vs untreated controls. The procedure, abridged:
as §1

Assay [10] has as its system Abutilon theophrasti. Put plainly: Pre-emergence herbicidal action, greenhouse, 320 g/ha. Format: in vivo. The note with it: application rate 320 g/ha, scored visually after about 3 weeks vs untreated controls. Put shortly:
(§2)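 Soil-surface application onto covered seeds; WP or EC formulation with 0.5% additive in aqueous spray; visual rating at ~3 weeks, 0–100% vs untreated plants.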

For assay [11], the system named is Alopecurus myosuroides. The description is as above. Format: in vivo. The conditions noted are these: application rate 320 g/ha, scored visually after about 3 weeks vs untreated controls. The procedure, abridged: as §2
For assay [12], the system named is Amaranthus retroflexus. Described as above. Format: in vivo. The note with it: application rate 320 g/ha, scored visually after about 3 weeks vs untreated controls. Put shortly:
as §2

Assay [13] deals with Hordeum murinum. The assay is described as above. Format: in vivo. The note with it: application rate 320 g/ha, Table B14. Put shortly:
as §2

Assay [14] deals with Matricaria inodora. The description is as above. Format: in vivo. The note with it: application rate 320 g/ha, scored visually after about 3 weeks vs untreated controls. Put shortly: as §2
In assay [15] the test system is Pharbitis purpurea. The description is as above. The note with it: application rate 320 g/ha, Table B12. Format: in vivo. The procedure, abridged:
as §2

For assay [16], the system named is Polygonum convolvulus. Described as above. The note with it: application rate 320 g/ha, scored visually after about 3 weeks vs untreated controls. Format: in vivo. Put shortly:
as §2

The subject of assay [17] is Setaria viridis. The assay is described as above. Format: in vivo. The note with it: application rate 320 g/ha, Table B11. Put shortly:
as §2

Assay [18] deals with Stellaria media. Described as above. The conditions noted are these: application rate 320 g/ha, scored visually after about 3 weeks vs untreated controls. Format: in vivo. The procedure, abridged:
as §2

In assay [19] the test system is Veronica persica. The assay is described as above. Format: in vivo. The note with it: application rate 320 g/ha, Table B13. Put shortly:
as §2

In assay [20] the test system is Viola tricolor. The description is as above. The conditions noted are these: application rate 320 g/ha, Table B8. Format: in vivo. The procedure, abridged: as §2
A further assay concerns the target T1, photosystem II (PS II) (Spinacia oleracea, UniProt P69560).
T1 construct: the chloroplasts were osmotically ruptured and the thylakoid membranes were then obtained by centrifugation; from tissue; host or cells: fresh spinach leaves; thylakoid membrane preparation from isolated chloroplasts
As to the kind of experiment: Measurement of PS II activity in thylakoid membranes (DCPIP reduction). Format: biochemical, spinach. The note with it: PS II activity in spinach thylakoid membranes, Table E1; read-out: Effect. Put shortly: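 Thylakoid membranes from osmotically ruptured spinach chloroplasts in 50 mM phosphate pH 6.8, 10 mM KCl; compounds added from 100 μM DMSO solution (2.5% DMSO final), 120 μM DCPIP final. DCPIP reduction under light tracked as absorbance decrease at 595 nm over 10 min at 22 °C; % inhibition binned, metribuzin as plate standard.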

The test system of assay [21] is Hordeum murinum. Put plainly: Post-emergence herbicidal action, greenhouse, 320 g/ha. Format: in vivo. The note with it: application rate 320 g/ha, rated visually after about 3 weeks vs untreated controls. Put shortly:
as §1

A further assay has as its system Lolium rigidum. The assay is described as above. Format: in vivo. The conditions noted are these: application rate 320 g/ha, rated visually after about 3 weeks vs untreated controls. Put shortly:
as §1

Assay [22] deals with Matricaria inodora. The description is as above. The note with it: application rate 320 g/ha, rated visually after about 3 weeks vs untreated controls. Format: in vivo. The procedure, abridged:
as §1

Assay [23] deals with Veronica persica. The description is as above. Format: in vivo. The note with it: application rate 320 g/ha, rated visually after about 3 weeks vs untreated controls. The procedure, abridged: as §1
A further assay deals with Avena fatua. As to the kind of experiment: Pre-emergence herbicidal action, greenhouse, 320 g/ha. Format: in vivo. The note with it: application rate 320 g/ha, scored visually after about 3 weeks vs untreated controls. The procedure, abridged: as §2
The test system of assay [24] is Echinochloa crus-galli. The assay is described as above. Format: in vivo. The note with it: application rate 320 g/ha, scored visually after about 3 weeks vs untreated controls. The procedure, abridged: as §2

For `CC(=O)OC1CCN(C)C(=O)N1c1cc(C(C)(C)C)on1` (stereo not shown) [I.2-162, 3-(5-tert-Butyl-1,2-oxazol-3-yl)-1-methyl-2-oxohexahydropyrimidin-4-yl Acetate], the “Abutilon theophrasti (efficacy in %)” value in the assay on Abutilon theophrasti [1] and in the assay on Abutilon theophrasti [10] was 100% throughout. The “Alopecurus myosuroides (efficacy in %)” value in the assay on Alopecurus myosuroides [2] amounted to 80%; with Alopecurus myosuroides [11], 90%. The “Amaranthus retroflexus (efficacy in %)” value in the assay with Amaranthus retroflexus [3] and in the assay with Amaranthus retroflexus [12] was 100% in each case. Moreover, the “Echinochloa crus-galli (efficacy in %)” value in the assay with Echinochloa crus-galli [4] is reported as 80%. Besides, the “Pharbitis purpurea (efficacy in %)” value with Pharbitis purpurea [5] and with Pharbitis purpurea [15] was 100% in each case. Further, the “Polygonum convolvulus (efficacy in %)” value in the assay with Polygonum convolvulus [6] and in the assay on Polygonum convolvulus [16] was 100% in each case. Also, the “Setaria viridis (efficacy in %)” value in the assay on Setaria viridis [7] amounted to 100%; with Setaria viridis [17] it was 90%. Further, the “Stellaria media (efficacy in %)” value in the assay with Stellaria media [8] and with Stellaria media [18] was 100% each time. Besides, the “Viola tricolor (efficacy in %)” value with Viola tricolor [9] and with Viola tricolor [20] was 100% each time. The “Hordeum murinum (efficacy in %)” value in the assay on Hordeum murinum [13] is 80%. In addition, the “Matricaria inodora (efficacy in %)” value with Matricaria inodora [14] turned out to be 100%. In addition, the “Veronica persica (efficacy in %)” value with Veronica persica [19] amounted to 90%. At photosystem II (PS II), the inhibition at 100 µM was in the range of 70 to 90%.
For the molecule `CCC(=O)OC1CCN(C)C(=O)N1c1cc(C(C)(C)C)on1` (stereo not shown) [I.3-162, 3-(5-tert-Butyl-1,2-oxazol-3-yl)-1-methyl-2-oxohexahydropyrimidin-4-yl Propionate], the “Abutilon theophrasti (efficacy in %)” value with Abutilon theophrasti [1] and with Abutilon theophrasti [10] was 100% each time. For the same molecule, the “Amaranthus retroflexus (efficacy in %)” value in the assay with Amaranthus retroflexus [3] and with Amaranthus retroflexus [12] was 100% each time. The “Hordeum murinum (efficacy in %)” value with Hordeum murinum [21] and in the assay on Hordeum murinum [13] was 90% each time. Moreover, in the assay with Lolium rigidum, the “Lolium rigidum (efficacy in %)” value was 80%. Further, the “Matricaria inodora (efficacy in %)” value in the assay on Matricaria inodora [22] and in the assay with Matricaria inodora [14] was 100% throughout. The “Pharbitis purpurea (efficacy in %)” value with Pharbitis purpurea [5] and with Pharbitis purpurea [15] was 100% each time. Further, the “Polygonum convolvulus (efficacy in %)” value in the assay with Polygonum convolvulus [6] and in the assay on Polygonum convolvulus [16] was 100% each time. Moreover, the “Setaria viridis (efficacy in %)” value with Setaria viridis [7] amounted to 90%; in the assay on Setaria viridis [17], 100%. In addition, the “Stellaria media (efficacy in %)” value stood at 100% in the assay on Stellaria media [8] and 90% in the assay on Stellaria media [18]. Moreover, the “Veronica persica (efficacy in %)” value is reported as 90% in the assay on Veronica persica [23] and 100% in the assay with Veronica persica [19]. Also, the “Viola tricolor (efficacy in %)” value in the assay on Viola tricolor [9] and with Viola tricolor [20] was 100% throughout. Further, the “Alopecurus myosuroides (efficacy in %)” value with Alopecurus myosuroides [11] is reported as 80%. In addition, the “Avena fatua (efficacy in %)” value with Avena fatua was 100%. In addition, the “Echinochloa crus-galli (efficacy in %)” value in the assay on Echinochloa crus-galli [24] is recorded as 80%. Besides, the inhibition at 100 µM on photosystem II (PS II) lay within 50 to 70%.
